Data published in patent publication US20250163057A1, “DCN-1 MODULATING COMPOUNDS AND METHODS OF USE THEREOF” (Cellarity, Inc., priority 2023, published 2025).
Where two headings read alike, the source gives them in different places.

Target: DCN1 (DCUND1) protein PONY domain (Homo sapiens (Human), UniProt Q96GG9)
Assay: TR-FRET assay, DCN1 binding with FAM-labeled probe
Procedure: A TR-FRET assay was performed to evaluate the ability of the compounds to bind the DCN-1 protein.
The TR-FRET assay was designed following the Scott et al. protocol (Scott et al., Nat Chem Biol. 2017 August; 13(8): 850-857. Doi:10.1038/nchembio.2386). The recombinant form of the DCN1 (DCUND1) protein PONY domain was produced using an E. coli expression system at Viva Biotech (China). The DCN1 protein was biotinylated (EZ sulfo-NHS-LC-biotin; Thermofisher) for labeling with streptavidin terbium (Tb) cryptate in the reaction. The probe was changed to a non-covalent DCN1 inhibitor labeled with carboxyfluorescein (FAM; Zhou et al., Nat Commun. 2017; 8: 1150. Doi: 10.1038/s41467-017-01243-7). Buffer conditions were modified to enhance protein stability by exchanging Tween20 for TritonX and increasing NaCl to 200 mM. The compounds were screened against 5 nM DCN1 and 20 nM FAM-probe or 0.31 nM DCN1 and 900 nM total probe (100 nM FAM-labeled plus 800 nM unlabeled). The TR-FRET ratio between Tb-DCN1 and the FAM-labeled probe was measured in a 384-well opti-plate (Perkin Elmer) using a plate reader (BMG) at 1, 5, and 24 hrs after treatment with compound (final DMSO concentration of 0.1%).

[1] = 24 hr after treatment with compound, read-out: TR FRET IC50 24 hr
[2] = TR FRET IC50 1 hr (nM), 1 hr after treatment with compound

Chain of DCN1 (DCUND1) protein PONY domain (Q96GG9 60-248): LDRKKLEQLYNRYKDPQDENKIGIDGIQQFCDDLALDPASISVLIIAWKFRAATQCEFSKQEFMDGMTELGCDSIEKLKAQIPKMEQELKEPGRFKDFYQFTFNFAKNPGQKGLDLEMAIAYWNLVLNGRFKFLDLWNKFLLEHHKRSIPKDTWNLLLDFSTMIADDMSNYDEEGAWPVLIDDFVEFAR

Structure (SMILES)	IC50 [1]	IC50 [2]
CCN1C(=O)[C@@H](NC(=O)c2cccc(C(F)(F)F)c2)[C@@H](c2ccc(F)cc2)c2c(CC/C=C/C(=O)NC)nn(-c3ccccc3)c21 (racemic) [Compound I-91]	200 to 1000 nM	200 to 1000 nM
CCN1C(=O)[C@@H](NC(=O)c2cccc(C(F)(F)F)c2)[C@@H](c2ccc(F)cc2)c2c(NC(=O)C#CCN(C)C)nn(-c3ccccc3)c21 (racemic) [Compound I-93, rac-N-((4R,5R)-3-(4-(dimethylamino)but-2-ynamido)-7-ethyl-4-(4-fluorophenyl)-6-oxo-1-phenyl-4,5,6,7-tetrahydro-1H-pyrazolo[3,4-b]pyridine-5-yl)-3-(trifluoromethyl)benzamide]	≤ 200 nM	≤ 200 nM
C=C(CN1CC(F)(F)C1)C(=O)NCc1nn(-c2ccccc2)c2c1[C@H](c1ccc(F)cc1)[C@H](NC(=O)c1cccc(C(F)(F)F)c1)C(=O)N2CC (racemic) [Compound I-95]	200 to 1000 nM	200 to 1000 nM
CCN1C(=O)[C@@H](NC(=O)c2cccc(C(F)(F)F)c2)[C@@H](c2ccc(F)cc2)c2c(CNCC#N)nn(-c3ccccc3)c21 (racemic) [Compound I-96, rac-N-((4R,5R)-3-(((cyanomethyl)amino)methyl)-7-ethyl-4-(4-fluorophenyl)-6-oxo-1-phenyl-4,5,6,7-tetrahydro-1H-pyrazolo[3,4-b]pyridine-5-yl)-3-(trifluoromethyl)benzamide]	200 to 1000 nM	200 to 1000 nM
CCN1C(=O)[C@@H](NC(=O)c2cccc(C(F)(F)F)c2)[C@@H](C2CC2)c2c(CNC#N)nn(-c3ccccc3)c21 (racemic) [Compound I-98]	≤ 200 nM	200 to 1000 nM
CCN1C(=O)[C@@H](NC(=O)c2cccc(C(F)(F)F)c2)[C@@H](c2ccc(F)cc2)c2c(C/C=C/C(=O)NCCCN(C)C)nn(-c3ccccc3)c21 (racemic) [Compound I-99]	200 to 1000 nM	200 to 1000 nM
CCN1C(=O)[C@@H](NC(=O)c2cccc(C(F)(F)F)c2)[C@@H](c2ccc(F)cc2)c2c(CNC(=O)C3(C#N)COC3)nn(-c3ccccc3)c21 (racemic) [Compound I-100, rac-3-cyano-N-(((4R,5R)-7-ethyl-4-(4-fluorophenyl)-6-oxo-1-phenyl-5-(3-(trifluoromethyl)benzamido)-4,5,6,7-tetrahydro-1H-pyrazolo[3,4-b]pyridine-3-yl)methyl)oxetane-3-carboxamide]	200 to 1000 nM	200 to 1000 nM
C=C(Cc1nn(-c2ccccc2)c2c1[C@H](c1ccc(F)cc1)[C@H](NC(=O)c1cccc(C(F)(F)F)c1)C(=O)N2CC)C(N)=O (racemic) [Compound I-105, rac-N-((4R,5R)-3-(2-carbamoylallyl)-7-ethyl-4-(4-fluorophenyl)-6-oxo-1-phenyl-4,5,6,7-tetrahydro-1H-pyrazolo[3,4-b]pyridin-5-yl)-3-(trifluoromethyl)benzamide]	200 to 1000 nM	200 to 1000 nM
CCN1C(=O)[C@@H](NC(=O)c2cccc(C(F)(F)F)c2)[C@@H](c2ccc(F)cc2)c2c(NC(=O)C(F)Cl)nn(-c3ccccc3)c21 (mixture of isomers) [Compound I-120]	200 to 1000 nM	200 to 1000 nM
CCN1C(=O)[C@@H](NC(=O)c2cccc(C(F)(F)F)c2)[C@@H](c2ccc(F)cc2)c2c(CC/C=C\C(=O)O)nn(-c3ccccc3)c21 (racemic) [Compound I-126, rac-(Z)-5-((4R,5R)-7-ethyl-4-(4-fluorophenyl)-6-oxo-1-phenyl-5-(3-(trifluoromethyl)benzamido)-4,5,6,7-tetrahydro-1H-pyrazolo[3,4-b]pyridin-3-yl)pent-2-enoic acid]	200 to 1000 nM	200 to 1000 nM
CCN1C(=O)[C@@H](NC(=O)c2cccc(C(F)(F)F)c2)[C@@H](c2ccc(F)cc2)c2c(CC/C=C/C(=O)OC)nn(-c3ccccc3)c21 (racemic) [Compound I-128, rac-methyl (E)-5-((4R,5R)-7-ethyl-4-(4-fluorophenyl)-6-oxo-1-phenyl-5-(3-(trifluoromethyl)benzamido)-4,5,6,7-tetrahydro-1H-pyrazolo[3,4-b]pyridin-3-yl)pent-2-enoate]	200 to 1000 nM	1000 to 3000 nM
CCN1C(=O)[C@@H](NC(=O)c2cccc(C(F)(F)F)c2)[C@@H](c2ccc(F)cc2)c2c(CC/C=C/C(=O)O)nn(-c3ccccc3)c21 (racemic) [Compound I-134, rac-(E)-5-((4R,5R)-7-ethyl-4-(4-fluorophenyl)-6-oxo-1-phenyl-5-(3-(trifluoromethyl)benzamido)-4,5,6,7-tetrahydro-1H-pyrazolo[3,4-b]pyridin-3-yl)pent-2-enoic acid]	200 to 1000 nM	200 to 1000 nM
CCN1C(=O)[C@@H](NC(=O)c2cccc(C(F)(F)F)c2)[C@@H](c2ccc(F)cc2)c2c(CC/C=C\C(N)=O)nn(-c3ccccc3)c21 (racemic) [Compound I-142]	200 to 1000 nM	200 to 1000 nM
CCN1C(=O)[C@@H](NC(=O)c2cccc(C(F)(F)F)c2)[C@@H](c2ccc(F)cc2)c2c(C(C)(C)NC#N)nn(-c3ccccc3)c21 (racemic) [Compound I-144, rac-N-((4R,5R)-3-(2-cyanamidopropan-2-yl)-7-ethyl-4-(4-fluorophenyl)-6-oxo-1-phenyl-4,5,6,7-tetrahydro-1H-pyrazolo[3,4-b]pyridin-5-yl)-3-(trifluoromethyl)benzamide]	200 to 1000 nM	1000 to 3000 nM
CCN1C(=O)[C@@H](NC(=O)c2cccc(C(F)(F)F)c2)[C@@H](c2ccc(F)cc2)c2c(CN(C)C(=O)C(F)Cl)nn(-c3ccccc3)c21 (mixture of isomers) [Compound I-145]	200 to 1000 nM	200 to 1000 nM
C=C(C(=O)OC(C)(C)C)[C@@H](O)c1nn(-c2ccccc2)c2c1[C@H](c1ccc(F)cc1)[C@H](NC(=O)c1cccc(C(F)(F)F)c1)C(=O)N2CC (racemic) [Compound I-146, rac-tert-butyl 2-(((4R,5R)-7-ethyl-4-(4-fluorophenyl)-6-oxo-1-phenyl-5-(3-(trifluoromethyl)benzamido)-4,5,6,7-tetrahydro-1H-pyrazolo[3,4-b]pyridin-3-yl)(hydroxy)methyl)acrylate]	200 to 1000 nM	1000 to 3000 nM
CCN1C(=O)[C@@H](NC(=O)c2cccc(C(F)(F)F)c2)[C@@H](c2ccc(F)cc2)c2c(CNC(=O)/C=C/C(=O)NCCN(C)C)nn(-c3ccccc3)c21 (racemic) [Compound I-154, rac-N1-(2-(dimethylamino)ethyl)-N4-(((4R,5R)-7-ethyl-4-(4-fluorophenyl)-6-oxo-1-phenyl-5-(3-(trifluoromethyl)benzamido)-4,5,6,7-tetrahydro-1H-pyrazolo[3,4-b]pyridine-3-yl)methyl)fumaramide]	≤ 200 nM	200 to 1000 nM
CCN1C(=O)[C@@H](NC(=O)c2cccc(C(F)(F)F)c2)[C@@H](c2ccc(F)cc2)c2c(CNC(=O)/C(C)=C/C(=O)OC)nn(-c3ccccc3)c21 (racemic) [Compound I-155]	200 to 1000 nM	1000 to 3000 nM
C/C=C(\C)S(=O)(=O)NCc1nn(-c2ccccc2)c2c1[C@H](c1ccc(F)cc1)[C@H](NC(=O)c1cccc(C(F)(F)F)c1)C(=O)N2CC (racemic) [Compound I-159]	200 to 1000 nM	1000 to 3000 nM
CCN1C(=O)[C@H](NC(=O)c2cccc(C(F)(F)F)c2)[C@H](c2ccc(F)cc2)c2c([C@@H](C)N(C)C#N)nn(-c3ccccc3)c21 (relative stereo) [Compound I-79, N-((4R*,5R*)-7-ethyl-4-(4-fluorophenyl)-3-((R)-1-(N-methylcyanamido)ethyl)-6-oxo-1-phenyl-4,5,6,7-tetrahydro-1H-pyrazolo[3,4-b]pyridine-5-yl)-3-(trifluoromethyl)benzamide]	1000 to 3000 nM	1000 to 3000 nM
CCN1C(=O)[C@@H](NC(=O)c2cccc(C(F)(F)F)c2)[C@@H](c2ccc(F)cc2)c2c(CNC(=O)[C@H](C)C#N)nn(-c3ccccc3)c21 (relative stereo) [Compound I-85, N-((4RS,5RS)-3-(((S*)-2-cyanopropanamido)methyl)-7-ethyl-4-(4-fluorophenyl)-6-oxo-1-phenyl-4,5,6,7-tetrahydro-1H-pyrazolo[3,4-b]pyridin-5-yl)-3-(trifluoromethyl)benzamide]	1000 to 3000 nM	1000 to 3000 nM
CCN1C(=O)[C@@H](NC(=O)c2cccc(C(F)(F)F)c2)[C@@H](c2ccc(F)cc2)c2c(CNC(=O)[C@@H](C)C#N)nn(-c3ccccc3)c21 (relative stereo) [Compound I-158, N-((4RS,5RS)-3-(((R*)-2-cyanopropanamido)methyl)-7-ethyl-4-(4-fluorophenyl)-6-oxo-1-phenyl-4,5,6,7-tetrahydro-1H-pyrazolo[3,4-b]pyridin-5-yl)-3-(trifluoromethyl)benzamide]	200 to 1000 nM	200 to 1000 nM
CCN1C(=O)[C@H](NC(=O)c2cccc(C(F)(F)F)c2)[C@@H](c2ccc(F)cc2)c2c(CN(C)C#N)nn(-c3ccccc3)c21 (single isomer, unassigned) [Compound I-82]	1000 to 3000 nM	1000 to 3000 nM
CCN1C(=O)[C@@H](NC(=O)c2cccc(C(F)(F)F)c2)[C@H](c2ccc(F)cc2)c2c(CN(C)C#N)nn(-c3ccccc3)c21 (single isomer, unassigned) [Compound I-133]	200 to 1000 nM	200 to 1000 nM
CCN1C(=O)[C@@H](NC(=O)c2cccc(C(F)(F)F)c2)[C@@H](c2ccc(F)cc2)c2c([C@@H](C)N(C)C#N)nn(-c3ccccc3)c21 [Compound I-44]	≤ 200 nM	200 to 1000 nM
